Results as given in the Deep4Chem optical property database.

Assay: solvent given as SMILES
[1] = in O=P(c1ccccc1)(c1ccccc1)c1ccccc1Oc1ccccc1P(=O)(c1ccccc1)c1ccccc1

## O=C1NC(=O)c2ccc3c4ccc5c6c(ccc(c7ccc1c2c73)c64)C(=O)N(c1ccc(Cl)cc1)C5=O
In CN(C)C=O
  emission maximum: 536 nm

## Cc1ccc(/N=C2\N=C(N)c3cccc4cccc2c34)cc1
In ClCCl
  emission maximum: 498 nm

## c1ccc(-c2nnc(-c3cc(-c4nnc(-c5ccccc5)o4)c(-n4c5ccccc5c5ccccc54)cc3-n3c4ccccc4c4ccccc43)o2)cc1
In Cc1ccccc1
  emission maximum: 439 nm
[1]
  emission maximum: 459 nm

## c1ccc(-c2nnc(-c3ccc(N4c5ccccc5Oc5ccccc54)cc3)o2)cc1
In Cc1ccccc1
  emission maximum: 495 nm
In c1ccc(-n2c(-c3c(-n4c5ccccc5c5ccccc54)cccc3-n3c4ccccc4c4ccccc43)nc3ccccc32)cc1
  emission maximum: 498 nm

## O=Cc1nc2ccc(C#Cc3ccc(N(c4ccc(C#Cc5ccc6nc(C=O)sc6c5)cc4)c4ccc(C#Cc5ccc6nc(C=O)sc6c5)cc4)cc3)cc2s1
In Cc1ccccc1
  emission maximum: 500 nm

## CC(C)(C)c1ccc(-c2cc(-c3ccc(-c4cc(-c5ccc(C(C)(C)C)cc5)c(C#N)s4)s3)sc2C#N)cc1
In ClCCl
  emission maximum: 443 nm

## c1ccc(-c2ccc3c4ccc(-c5ccccc5)c5c(-c6ccccc6)ccc(c6ccc(-c7ccccc7)c2c36)c54)cc1
In ClCCl
  emission maximum: 520 nm

## CCn1c2ccccc2c2cc(C#Cc3cc(C#Cc4ccc5c(c4)c4ccccc4n5CC)ncn3)ccc21
In C1CCOC1
  emission maximum: 451 nm
In CCOC(C)=O
  emission maximum: 445 nm
In CN(C)C=O
  emission maximum: 502 nm
In Cc1ccccc1
  emission maximum: 411 nm
In ClCCl
  emission maximum: 484 nm

## CC1(C)C(/C=C/C2=C(Oc3ccc(CCN=C=S)cc3Br)C(=C/C=C3/N(CCCS(=O)(=O)[O-])c4ccccc4C3(C)C)/CCC2)=[N+](CCCS(=O)(=O)[O-])c2ccccc21
In CO
  emission maximum: 798 nm

## CN(C)c1ccc(C2=Nc3sc4c(F)c(F)c(F)c(F)c4[n+]3[B-](F)(F)O2)cc1
In C1CCOC1
  emission maximum: 492 nm
In CC#N
  emission maximum: 503 nm
In Cc1ccccc1
  emission maximum: 464 nm
In ClCCl
  emission maximum: 483 nm

## O=S(=O)(c1ccc2c(c1)c1ccccc1n2-c1ccccc1)c1ccc2c(c1)c1ccccc1n2-c1ccccc1
In ClCCl
  emission maximum: 372 nm

## COCCOCCOCCOCC(COCCOCCOCCOC)Oc1cc(/C=C/c2ccc(/C=C(\C#N)C(=O)c3ccccc3)cc2)c(OC(COCCOCCOCCOC)COCCOCCOCCOC)cc1/C=C/c1ccc(/C=C(\C#N)C(=O)c2ccccc2)cc1
In ClCCl
  emission maximum: 621 nm

## O=S1(=O)c2ccccc2Oc2cc(N3c4ccccc4C4(c5ccccc53)c3ccccc3N(c3ccc5c(c3)Oc3ccccc3S5(=O)=O)c3ccccc34)ccc21
In Cc1ccccc1
  emission maximum: 439.83 nm
[1]
  emission maximum: 464.9 nm

## COC(=O)c1cc2c(cc3ccc4cccc5ccc2c3c45)[nH]1
In C1CCOC1
  emission maximum: 404 nm

## COC(=O)C(NC(=O)OC(C)(C)C)c1ccc2oc(-c3cccc(Oc4ccccc4)c3)nc2c1 (stereo unspecified)
In CC1CCCCC1
  emission maximum: 325 nm
In CC#N
  emission maximum: 360 nm
In CO
  emission maximum: 348 nm

## CC[N+]1(CC)CN2C(C)=CC(C)=C(C(=O)O)C2=N1
In CN(C)C=O
  emission maximum: 449 nm
In O
  emission maximum: 449 nm

## CC1(C)c2ccccc2N(c2ccc(-c3nc4cccc5c4n3-c3ccccc3C5(C)C)cc2)c2ccccc21
In Cc1ccccc1
  emission maximum: 450 nm
[1]
  emission maximum: 449 nm

## CCCCN(CCCC)c1ccc2c(c1)C#CC#Cc1cc(C(F)(F)F)ccc1C#Cc1cc(c3cc1C#Cc1ccc(C(F)(F)F)cc1C#CC#Cc1cc(N(CCCC)CCCC)ccc1C#C3)C#C2
In ClCCl
  emission maximum: 550 nm
In c1ccccc1
  emission maximum: 503 nm

## COc1ccc(-c2csc(-c3ccncc3)n2)cc1
In CC#N
  emission maximum: 560 nm
In CCO
  emission maximum: 457 nm
In CN(C)C=O
  emission maximum: 451 nm
In CS(C)=O
  emission maximum: 455 nm
In Cc1ccccc1
  emission maximum: 415 nm
In ClCCl
  emission maximum: 548 nm

## COc1ccc(C2=C(Br)C(c3ccccc3)=[N+]3C2=Nc2c(-c4ccc(OC)cc4)c(Br)c(-c4ccccc4)n2[B-]3(F)F)cc1
In Cc1ccccc1
  emission maximum: 691 nm

## CC(C)CCCC(C)CCN1C(=O)c2ccc3c(-c4ccccc4)c4c5ccc6c7c(ccc(c(-c8ccccc8)c4c4ccc(c2c34)C1=O)c75)C(=O)N(CCC(C)CCCC(C)C)C6=O (stereo unspecified)
In ClCCl
  emission maximum: 704 nm

## CN(C)c1ccc(/C=C/c2ccc(-c3nnc(-c4ccc(-c5cc6ccccc6s5)cc4)o3)cc2)cc1
In CC#N
  emission maximum: 397 nm
In CC(C)=O
  emission maximum: 395 nm
In CCCCCCCC
  emission maximum: 387 nm
In CCCCCCCCCCO
  emission maximum: 394 nm
In CCCCCCCCO
  emission maximum: 398 nm
In CCCCCO
  emission maximum: 399 nm
In CCCO
  emission maximum: 399 nm
In CN(C)C=O
  emission maximum: 401 nm
In CO
  emission maximum: 404 nm
In CS(C)=O
  emission maximum: 408 nm

## N#C/C(=C\c1ccc(/C=C/c2ccc(N(c3ccccc3)c3ccccc3)cc2)s1)C(=O)O
In ClCCl
  emission maximum: 676 nm

## Oc1ccc2ccccc2c1/C=N/c1cc2ccccc2cc1/N=C/c1c(O)ccc2ccccc12
In CC#N
  emission maximum: 509 nm

## CN(C)c1ccc(C2=Nc3sc4cc(Cl)ccc4[n+]3[B-](F)(F)O2)cc1
In C1CCOC1
  emission maximum: 477 nm
In CC#N
  emission maximum: 491 nm
In CC(C)=O
  emission maximum: 488 nm
In Cc1ccccc1
  emission maximum: 456 nm
In ClCCl
  emission maximum: 473 nm

## CN(C)c1ccc(C(=Cc2ccc(/C=C(\C#N)c3ccccc3)cc2)c2ccc(N(C)C)cc2)cc1
In C1CCOC1
  emission maximum: 616 nm

## C(=C\c1cnc2ccccc2n1)/c1ccc(N2CCCCC2)cc1
In C1CCOC1
  emission maximum: 557 nm
In CC#N
  emission maximum: 617 nm
In CCCCCCC
  emission maximum: 480 nm
In CS(C)=O
  emission maximum: 626 nm
In ClCCl
  emission maximum: 583 nm

## CC1(C)C(/C=C/C=C/C=C/C=C2/N(CCCCCC(=O)O)c3ccc(S(=O)(=O)[O-])cc3C2(C)C)=[N+](CCCCS(=O)(=O)[O-])c2ccc(S(=O)(=O)[O-])cc21
In CO
  emission maximum: 774 nm
In O
  emission maximum: 771 nm

## CC/[NH+]=c1\cc2oc3cc(NCCC(=O)NC(CCC(=O)OC)C(=O)OC)c4ccccc4c3nc-2cc1C (stereo unspecified)
In CCO
  emission maximum: 644 nm
In O
  emission maximum: 652 nm

## c1ccc(-c2nc(-c3ccccc3)nc(-c3ccccc3-n3c4ccccc4c4c5oc6ccccc6c5ccc43)n2)cc1
In C1CCCCC1
  emission maximum: 438.08 nm
In C1CCOC1
  emission maximum: 492.26 nm
In Cc1ccccc1
  emission maximum: 474.61 nm
[1]
  emission maximum: 456.95 nm

## O=S(=O)(c1ccccc1)c1ccc(-c2ccc3c(c2)c2cc(-c4ccc(S(=O)(=O)c5ccccc5)cc4)ccc2n3-c2ccccc2)cc1
In CCCCCC
  emission maximum: 377 nm
In CN(C)C=O
  emission maximum: 431 nm
In CO
  emission maximum: 434 nm
In Cc1ccccc1
  emission maximum: 381 nm
In ClCCl
  emission maximum: 395 nm

## CN(C)c1ccc(/C=C/c2nc3ccc(Br)cc3nc2-c2ccccc2)cc1
In C1COCCO1
  emission maximum: 555 nm
In CC#N
  emission maximum: 648 nm
In ClCCl
  emission maximum: 602 nm

## Cc1cc(C)c(B(c2c(C)cc(C)cc2C)c2c(C)cc(N3c4ccccc4Oc4ccccc43)cc2C)c(C)c1
In Cc1ccccc1
  emission maximum: 509 nm
In c1ccc2c(c1)c1ccccc1n2-c1ccc(-c2ccc(-n3c4ccccc4c4ccccc43)cc2)cc1
  emission maximum: 504 nm

## c1ccc(N(c2ccccc2)c2ccc3c(ccc4nc5ccc6cc(N(c7ccccc7)c7ccccc7)ccc6c5nc43)c2)cc1
In C1CCCCC1
  emission maximum: 492 nm
In C1CCOC1
  emission maximum: 552 nm
In CN(C)C=O
  emission maximum: 626 nm
In Cc1ccccc1
  emission maximum: 512 nm
In ClCCl
  emission maximum: 576 nm

## CC(C)(C)c1ccc2c(c1)c1cc(C(C)(C)C)ccc1n2-c1ccc2oc3nc4oc5cc(C(F)(F)F)ccc5c4cc3c2c1
In ClC(Cl)Cl
  emission maximum: 466 nm

## N#Cc1nc2cnc(N)nc2n1Cc1ccccc1
In C1COCCO1
  emission maximum: 381 nm
In CC#N
  emission maximum: 381 nm
In CO
  emission maximum: 398 nm
In ClCCl
  emission maximum: 381 nm
In O
  emission maximum: 406 nm

## O=P(c1c2ccccc2cc2ccccc12)(c1c2ccccc2cc2ccccc12)c1c2ccccc2cc2ccccc12
In C1CCOC1
  emission maximum: 452 nm

## CC[N+]1(CC)CN2C(=N1)C(C(=O)O)=Cc1cc(C)c(C)cc12
In O
  emission maximum: 466 nm

## CC(C)(C)c1ccccc1N(c1ccccc1)c1ccc(S(=O)(=O)c2ccc(S(=O)(=O)c3ccc(N(c4ccccc4)c4ccccc4C(C)(C)C)cc3)cc2)cc1
In Cc1ccccc1
  emission maximum: 444 nm
In c1cc(-n2c3ccccc3c3ccccc32)nc(-n2c3ccccc3c3ccccc32)c1
  emission maximum: 465.06 nm

## F[B-]1(F)n2c(nc(Br)c2Br)-c2cccc[n+]21
In C1CCCCC1
  emission maximum: 463 nm
In C1CCOC1
  emission maximum: 484 nm
In C1COCCO1
  emission maximum: 493 nm
In CC#N
  emission maximum: 492 nm
In CCCCCC
  emission maximum: 464 nm
In CO
  emission maximum: 487 nm
In ClC(Cl)Cl
  emission maximum: 469 nm

## CC(C)(C)NC(=O)c1ccc(Br)c2ccc3c4ccccc4c4ccccc4c3c12
In ClCCl
  emission maximum: 388 nm

## N#CC(/N=C/c1ccccc1O)=C(C#N)/N=C/c1ccccc1O
In CC#N
  emission maximum: 553 nm

## N#Cc1ccc(C#Cc2ccc3ccc4ccc(C#Cc5ccc(C#N)cc5)c5ccc2c3c45)cc1
In C1COCCO1
  emission maximum: 443.3 nm
In CC(C)=O
  emission maximum: 445.8 nm
In CCCCCC
  emission maximum: 435.5 nm
In CCCCCCO
  emission maximum: 448 nm
In CCO
  emission maximum: 445.5 nm
In CCOC(C)=O
  emission maximum: 442.4 nm
In CO
  emission maximum: 445.3 nm
In Cc1ccccc1
  emission maximum: 446.4 nm
In ClCCl
  emission maximum: 448.8 nm

## CC1=NN(c2cccc3ccccc23)[B-](F)(F)[n+]2ccccc21
In ClCCl
  emission maximum: 538 nm

## Cc1ccc(/C=C/c2nc3ccccc3s2)cc1
In C1CCCCC1
  emission maximum: 390 nm
In CO
  emission maximum: 405 nm

## COc1cccc(OC)c1-c1c2ccccc2c(-c2c(OC)cccc2OC)c2ccccc12
In C1CCCCC1
  emission maximum: 425 nm

## CC1(C)CC(/C=C/c2ccc(N3CCOCCOCCOCCOCC3)cc2)=CC(=C(C#N)C#N)C1
In C1CCOC1
  emission maximum: 623 nm
In CC#N
  emission maximum: 640 nm
In CCO
  emission maximum: 641 nm
In CCOC(C)=O
  emission maximum: 618 nm
In ClCCl
  emission maximum: 625 nm
In c1ccccc1
  emission maximum: 596 nm

## CN(C)c1ccc(-c2nc3ccccc3n2-c2ccccc2)cc1
In CC#N
  emission maximum: 397 nm

## CCN(CC)c1ccc(/C=N/c2ccccc2/N=C/c2ccc(N(CC)CC)cc2O)c(O)c1
In CC#N
  emission maximum: 502 nm
In CN(C)C=O
  emission maximum: 573 nm
In ClCCl
  emission maximum: 535 nm

## CCN(CC)c1ccc2c(-c3ccccc3C(=O)O)c3c([o+]c2c1)/C(=C/c1ccc2c(c1)c1ccccc1n2CC)CCC3
In ClCCl
  emission maximum: 712 nm

## Cn1ccc(-n2cncn2)nc1=O
In O
  emission maximum: 366 nm
